# Laboratory results as given in ChEMBL document CHEMBL1141171, “Selective estrogen receptor modulators with conformationally restricted side chains. Synthesis and structure-activity relationship of ERalpha-selective tetrahydroisoquinoline ligands” (J Med Chem, 2005).
# Legend:
# [1] = Total clearance of compound in rat after administration of 1 mg/kg (iv) and 5 mg/kg (po); assay type: ADME, organism-based; settings: in vivo
# [2] = in vivo; settings: rat, po, 5 mg/kg
# [3] = Maximum plasma concentration of compound in rat after peroral administration of 5 mg/kg; assay type: ADME, organism-based; set-up: dose 5 mg/kg, route oral; settings: po
# [4] = Steady state volume of distribution in rat after administration of 1 mg/kg (iv) and 5 mg/kg (po); assay type: ADME, organism-based; settings: in vivo, read-out: Vss
Structure (SMILES),clearance [1],bioavailability [2],Cmax [3],Vd [4]
CN1CCC(c2ccc(C3c4ccc(O)cc4CCN3c3ccc(F)cc3)cc2)CC1 (stereo unspecified),52.4 mL/min/kg,64%,26.5 nM,15.8 L/kg
O=C(c1ccc(OCCN2CCCCC2)cc1)c1c(-c2ccc(O)cc2)sc2cc(O)ccc12 [RALOXIFENE],158 mL/min/kg,,7.5 nM,17.6 L/kg
Oc1ccc2c(c1)CC[C@H](c1ccccc1)[C@@H]2c1ccc(OCCN2CCCC2)cc1 [LASOFOXIFENE],55.7 mL/min/kg,,15.5 nM,14.7 L/kg

# The remaining lines, values ahead:
clearance [1],bioavailability [2],Cmax [3],Vd [4],Structure (SMILES)
28.4 mL/min/kg,49%,29.7 nM,9.2 L/kg,Oc1ccc2c(c1)CCN(c1ccccc1)C2c1ccc(N2CCN3CCCCC3C2)cc1 (stereo unspecified)
51.9 mL/min/kg,,31 nM,13.8 L/kg,Oc1ccc2c(c1)CCN(c1ccccc1)C2c1ccc(OCCN2CCCCC2)cc1 (stereo unspecified)
17.9 mL/min/kg,44%,57.2 nM,5 L/kg,CC(C)N1CCN(c2ccc(C3c4ccc(O)cc4CCN3c3cccc(O)c3)cc2)CC1 (stereo unspecified)
